Measurements reported in ChEMBL document CHEMBL5143682, “Design and synthesis of cinnamic acid triptolide ester derivatives as potent antitumor agents and their biological evaluation” (Bioorg Med Chem Lett, 2022).

Test system: HepG2
Test: Antiproliferative activity against human HepG2 cells assessed as reduction in cell viability measured after 48 hrs by CCK-8 assay
Assay type: functional, cell-based
Conditions: HepG2, 48 h

SMILES	IC50
CCOP(=O)(OCC)Oc1ccc(/C=C/C(=O)O[C@@H]2[C@@]3(C(C)C)O[C@H]3[C@@H]3O[C@]34[C@]23O[C@H]3C[C@H]2C3=C(CC[C@@]24C)C(=O)OC3)cc1	578 nM
COc1cc(/C=C/C(=O)O[C@@H]2[C@@]3(C(C)C)O[C@H]3[C@@H]3O[C@]34[C@]23O[C@H]3C[C@H]2C3=C(CC[C@@]24C)C(=O)OC3)cc([N+](=O)[O-])c1OC	663 nM
CCOP(=O)(OCC)Oc1ccc(/C=C/C(=O)O[C@@H]2[C@@]3(C(C)C)O[C@H]3[C@@H]3O[C@]34[C@]23O[C@H]3C[C@H]2C3=C(CC[C@@]24C)C(=O)OC3)cc1OC	355 nM
COc1cc(CCC(=O)O[C@@H]2[C@@]3(C(C)C)O[C@H]3[C@@H]3O[C@]34[C@]23O[C@H]3C[C@H]2C3=C(CC[C@@]24C)C(=O)OC3)ccc1O	818 nM
CC(C)[C@]12O[C@H]1[C@@H]1O[C@]13[C@]1(O[C@H]1C[C@H]1C4=C(CC[C@@]13C)C(=O)OC4)[C@@H]2OC(=O)/C=C/c1cc(Br)ccc1F	591 nM
COc1cc(/C=C/C(=O)O[C@@H]2[C@@]3(C(C)C)O[C@H]3[C@@H]3O[C@]34[C@]23O[C@H]3C[C@H]2C3=C(CC[C@@]24C)C(=O)OC3)ccc1OCc1ccccc1	1020 nM
CC(C)[C@]12O[C@H]1[C@@H]1O[C@]13[C@]1(O[C@H]1C[C@H]1C4=C(CC[C@@]13C)C(=O)OC4)[C@@H]2OC(=O)/C=C/c1cccnc1	538 nM
CC(C)[C@]12O[C@H]1[C@@H]1O[C@]13[C@]1(O[C@H]1C[C@H]1C4=C(CC[C@@]13C)C(=O)OC4)[C@@H]2OC(=O)CCc1cccnc1	839 nM
COc1ccc(/C=C/C(=O)O[C@@H]2[C@@]3(C(C)C)O[C@H]3[C@@H]3O[C@]34[C@]23O[C@H]3C[C@H]2C3=C(CC[C@@]24C)C(=O)OC3)cc1OC	686 nM
CC(C)[C@]12O[C@H]1[C@@H]1O[C@]13[C@]1(O[C@H]1C[C@H]1C4=C(CC[C@@]13C)C(=O)OC4)[C@@H]2OC(=O)/C=C/c1ccccc1	413 nM
CC(C)[C@]12O[C@H]1[C@@H]1O[C@]13[C@]1(O[C@H]1C[C@H]1C4=C(CC[C@@]13C)C(=O)OC4)[C@@H]2OC(=O)/C=C/c1ccccc1F	381 nM
CC(C)[C@]12O[C@H]1[C@@H]1O[C@]13[C@]1(O[C@H]1C[C@H]1C4=C(CC[C@@]13C)C(=O)OC4)[C@@H]2OC(=O)/C=C/c1ccc(N2CCCCC2)cc1	620 nM
COc1cc(/C=C/C(=O)O[C@@H]2[C@@]3(C(C)C)O[C@H]3[C@@H]3O[C@]34[C@]23O[C@H]3C[C@H]2C3=C(CC[C@@]24C)C(=O)OC3)cc(OC)c1OC	689 nM
CC(C)[C@]12O[C@H]1[C@@H]1O[C@]13[C@]1(O[C@H]1C[C@H]1C4=C(CC[C@@]13C)C(=O)OC4)[C@@H]2OC(=O)/C=C/c1ccccc1N1CCCCC1	1720 nM
CC(C)[C@]12O[C@H]1[C@@H]1O[C@]13[C@]1(O[C@H]1C[C@H]1C4=C(CC[C@@]13C)C(=O)OC4)[C@@H]2OC(=O)/C=C/c1ccc(N2CCOCC2)cc1	783 nM
CC(C)[C@]12O[C@H]1[C@@H]1O[C@]13[C@]1(O[C@H]1C[C@H]1C4=C(CC[C@@]13C)C(=O)OC4)[C@@H]2OC(=O)/C=C/c1ccc(C(F)(F)F)cc1	899 nM
CC(C)[C@]12O[C@H]1[C@@H]1O[C@]13[C@]1(O[C@H]1C[C@H]1C4=C(CC[C@@]13C)C(=O)OC4)[C@@H]2O [TRIPTOLIDE]	468 nM

Next, values leading:

IC50	SMILES
564 nM	CC(C)[C@]12O[C@H]1[C@@H]1O[C@]13[C@]1(O[C@H]1C[C@H]1C4=C(CC[C@@]13C)C(=O)OC4)[C@@H]2OC(=O)/C=C/c1ccc(S(C)(=O)=O)cc1
695 nM	CC(C)[C@]12O[C@H]1[C@@H]1O[C@]13[C@]1(O[C@H]1C[C@H]1C4=C(CC[C@@]13C)C(=O)OC4)[C@@H]2OC(=O)/C=C/c1ccc([N+](=O)[O-])cc1
654 nM	COc1ccc(/C=C/C(=O)O[C@@H]2[C@@]3(C(C)C)O[C@H]3[C@@H]3O[C@]34[C@]23O[C@H]3C[C@H]2C3=C(CC[C@@]24C)C(=O)OC3)cc1
696 nM	CC(C)[C@]12O[C@H]1[C@@H]1O[C@]13[C@]1(O[C@H]1C[C@H]1C4=C(CC[C@@]13C)C(=O)OC4)[C@@H]2OC(=O)/C=C/c1ccc(N(C)C)cc1
439 nM	CC(C)[C@]12O[C@H]1[C@@H]1O[C@]13[C@]1(O[C@H]1C[C@H]1C4=C(CC[C@@]13C)C(=O)OC4)[C@@H]2OC(=O)/C=C/c1ccc(F)cc1
591 nM	CC(C)[C@]12O[C@H]1[C@@H]1O[C@]13[C@]1(O[C@H]1C[C@H]1C4=C(CC[C@@]13C)C(=O)OC4)[C@@H]2OC(=O)/C=C/c1ccc(C#N)cc1
838 nM	CC(C)[C@]12O[C@H]1[C@@H]1O[C@]13[C@]1(O[C@H]1C[C@H]1C4=C(CC[C@@]13C)C(=O)OC4)[C@@H]2OC(=O)/C=C/c1ccc(Br)cc1
454 nM	CCc1ccc(/C=C/C(=O)O[C@@H]2[C@@]3(C(C)C)O[C@H]3[C@@H]3O[C@]34[C@]23O[C@H]3C[C@H]2C3=C(CC[C@@]24C)C(=O)OC3)cc1
